Measurements: US12358885B2, “Substituted n-propylamine fused heterocyclic mescaline derivatives” (Enveric Biosciences Canada Inc., priority 2022, dated 2025)
Like-named read-outs stand apart in the source and are kept apart here.

Assays:
5-HT1A receptor [1] = biological target: T1, 5-HT1A receptor (Homo sapiens, UniProt P08908); assay: 5-HT1A receptor radioligand competition assay (SPA, 8-hydroxy-DPAT [3H]); format: binding; settings: 0.5 nM hot 8-hydroxy-DPAT, membranes containing 5-HT1A
T1 construct: purchased Perkin Elmer 6110501400UA
T1 sequence (P08908 1-422): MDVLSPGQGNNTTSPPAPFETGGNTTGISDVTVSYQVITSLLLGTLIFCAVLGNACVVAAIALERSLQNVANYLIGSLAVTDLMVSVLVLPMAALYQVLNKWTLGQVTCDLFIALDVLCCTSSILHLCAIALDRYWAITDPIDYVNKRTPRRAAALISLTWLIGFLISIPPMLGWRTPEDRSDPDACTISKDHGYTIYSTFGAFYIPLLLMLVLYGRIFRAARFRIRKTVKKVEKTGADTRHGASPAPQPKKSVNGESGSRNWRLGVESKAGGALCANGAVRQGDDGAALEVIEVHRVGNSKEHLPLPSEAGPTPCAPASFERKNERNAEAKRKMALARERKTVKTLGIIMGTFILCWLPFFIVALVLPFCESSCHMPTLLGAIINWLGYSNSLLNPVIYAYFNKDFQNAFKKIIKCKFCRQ

5-HT2A receptor [2] = biological target: T2, 5-HT2A receptor (Homo sapiens, UniProt P28223); assay: biochemical; format: binding
T2 construct: host or cells: HEK-293 cells (membrane preparation)

5-HT1A receptor [3] = biological target: T1, 5-HT1A receptor; assay: Functional 5-HT1A receptor cAMP assay in CHO-K1/5-HT1A/Gα15 cells; format: cell-based
5-HT1A receptor [4] = biological target: T1, 5-HT1A receptor; assay: Eurofins Cerep competition binding assay at 5-HT1A receptor; settings: 10 μM test ligand, [3H]8-OH-DPAT, recombinant receptor in HEK-293 cells; for inhibition at 10 µM: read-out: HT1A, percent of control-specific binding
5-HT2A receptor [5] = biological target: T2, 5-HT2A receptor; assay: biochemical; format: binding; settings: for inhibition at 10 µM: read-out: HT2A, percent of control-specific binding
5-HT2B receptor = biological target: T3, 5-HT2B receptor (Homo sapiens, UniProt P41595); assay: Eurofins Cerep competition binding assay at 5-HT2B receptor; settings: 10 μM test ligand, [3H]mesulergine, recombinant receptor in CHO cells; for inhibition at 10 µM: read-out: HT2B, percent of control-specific binding
T3 construct: host or cells: CHO cells (membrane preparation)

5-HT7 receptor = biological target: T4, 5-HT7 receptor (Homo sapiens, UniProt P34969); assay: Eurofins Cerep competition binding assay at 5-HT7 receptor; settings: 10 μM test ligand, [3H]LSD, recombinant receptor in HEK-293 cells; for inhibition at 10 µM: read-out: HT7, percent of control-specific binding
T4 construct: host or cells: HEK-293 cells (membrane preparation)

alpha2A receptor = biological target: T5, alpha2A receptor (Homo sapiens, UniProt P08913); assay: Eurofins Cerep competition binding assay at alpha2A receptor; settings: 10 μM test ligand; [3H]RX 821002; recombinant receptor in CHO cells
T5 construct: host or cells: CHO cells (membrane preparation)
T5 sequence (P08913 1-465): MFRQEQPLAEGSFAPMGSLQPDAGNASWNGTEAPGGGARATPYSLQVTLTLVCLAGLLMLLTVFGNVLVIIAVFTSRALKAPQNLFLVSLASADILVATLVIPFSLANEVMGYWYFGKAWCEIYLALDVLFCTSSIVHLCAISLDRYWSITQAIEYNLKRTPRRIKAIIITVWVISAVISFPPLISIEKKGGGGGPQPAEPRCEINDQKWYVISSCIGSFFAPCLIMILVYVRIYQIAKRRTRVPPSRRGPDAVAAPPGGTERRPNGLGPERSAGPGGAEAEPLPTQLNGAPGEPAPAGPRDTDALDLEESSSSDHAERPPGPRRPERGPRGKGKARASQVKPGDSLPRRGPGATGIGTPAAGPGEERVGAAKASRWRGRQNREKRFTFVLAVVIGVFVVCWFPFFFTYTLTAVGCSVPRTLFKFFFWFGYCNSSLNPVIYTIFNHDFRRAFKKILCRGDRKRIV

D3 receptor = biological target: T6, D3 receptor (Homo sapiens, UniProt P35462); assay: Eurofins Cerep competition binding assay at D3 receptor; settings: 10 μM test ligand, [3H]methylspiperone, recombinant receptor in CHO cells; for inhibition at 10 µM: read-out: D3, percent of control-specific binding
T6 construct: host or cells: CHO cells (membrane preparation)

[6] = biological target: T7, serotonin transporter (SERT) (Homo sapiens, UniProt P31645); assay: biochemical; format: binding; settings: for SERT, percent of control-specific binding: 10 µM; for inhibition at 10 µM: read-out: SERT, percent of control-specific binding
T7 construct: host or cells: CHO cells (membrane preparation)

[7] = biological target: T8, dopamine transporter (DAT) (Homo sapiens, UniProt Q01959); assay: Eurofins Cerep competition binding assay at dopamine transporter; settings: for DAT, percent of control-specific binding: 10 μM test ligand, [3H]BTCP, recombinant transporter in CHO cells; for inhibition at 10 µM: read-out: DAT, percent of control-specific binding
T8 construct: host or cells: CHO cells (membrane preparation)

MT1 receptor = biological target: T9, MT1 receptor (Homo sapiens, UniProt P48039); assay: Eurofins Cerep competition binding assay at MT1 receptor; settings: for MT1, percent of control-specific binding: 10 μM test ligand, [125I]2-iodomelatonin, recombinant receptor in CHO cells; for inhibition at 10 µM: read-out: MT1, percent of control-specific binding
T9 construct: host or cells: CHO cells (membrane preparation)

[8] = biological target: T10, norepinephrine transporter (NET) (Homo sapiens, UniProt P23975); assay: Eurofins Cerep competition binding assay at norepinephrine transporter; settings: for NET, percent of control-specific binding: 10 μM test ligand, [3H]nisoxetine, recombinant transporter in CHO cells; for inhibition at 10 µM: read-out: NET, percent of control-specific binding
T10 construct: host or cells: CHO cells (membrane preparation)

5-HT2C receptor = biological target: T11, 5-HT2C receptor (Homo sapiens, UniProt P28335); assay: Eurofins Cerep competition binding assay at 5-HT2C receptor; settings: 10 μM test ligand, [125I](±)DOI, recombinant receptor in HEK-293 cells; for inhibition at 10 µM: read-out: HT2C, percent of control-specific binding
T11 construct: host or cells: HEK-293 cells (membrane preparation)
T11 sequence (P28335 33-458): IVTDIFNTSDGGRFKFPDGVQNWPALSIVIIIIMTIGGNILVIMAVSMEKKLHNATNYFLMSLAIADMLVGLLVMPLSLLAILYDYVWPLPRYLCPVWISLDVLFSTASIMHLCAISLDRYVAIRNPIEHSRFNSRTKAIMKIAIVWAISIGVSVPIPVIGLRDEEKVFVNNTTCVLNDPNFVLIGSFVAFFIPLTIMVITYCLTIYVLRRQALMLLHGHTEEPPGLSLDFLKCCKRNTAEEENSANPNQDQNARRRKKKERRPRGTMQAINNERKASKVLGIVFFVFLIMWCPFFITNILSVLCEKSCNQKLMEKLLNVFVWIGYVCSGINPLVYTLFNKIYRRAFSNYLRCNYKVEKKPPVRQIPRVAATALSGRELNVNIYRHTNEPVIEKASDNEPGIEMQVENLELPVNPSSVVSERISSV

[9] = 1 nM [3H]ketanserin, membranes containing 5-HT2A, SPA
[10] = reduction of cAMP in cells stimulated with 4 μM forskolin, CHO-K1/5-HT1A/Gα15, read-out: 5-HT1A, EC50
[11] = 10 μM test molecule, [125I](±)DOI, recombinant receptor in HEK-293 cells

T6 sequence (P35462 whole entry): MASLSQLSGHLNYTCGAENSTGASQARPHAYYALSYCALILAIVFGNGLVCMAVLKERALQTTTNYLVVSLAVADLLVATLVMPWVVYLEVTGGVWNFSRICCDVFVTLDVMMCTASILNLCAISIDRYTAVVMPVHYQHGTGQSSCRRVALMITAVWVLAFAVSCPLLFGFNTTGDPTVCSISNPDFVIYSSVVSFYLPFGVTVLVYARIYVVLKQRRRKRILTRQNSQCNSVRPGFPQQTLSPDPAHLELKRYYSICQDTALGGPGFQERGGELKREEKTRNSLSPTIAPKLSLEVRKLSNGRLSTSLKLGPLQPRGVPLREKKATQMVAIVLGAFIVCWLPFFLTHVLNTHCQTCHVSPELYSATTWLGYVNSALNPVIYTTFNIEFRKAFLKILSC
T7 sequence (P31645 whole entry): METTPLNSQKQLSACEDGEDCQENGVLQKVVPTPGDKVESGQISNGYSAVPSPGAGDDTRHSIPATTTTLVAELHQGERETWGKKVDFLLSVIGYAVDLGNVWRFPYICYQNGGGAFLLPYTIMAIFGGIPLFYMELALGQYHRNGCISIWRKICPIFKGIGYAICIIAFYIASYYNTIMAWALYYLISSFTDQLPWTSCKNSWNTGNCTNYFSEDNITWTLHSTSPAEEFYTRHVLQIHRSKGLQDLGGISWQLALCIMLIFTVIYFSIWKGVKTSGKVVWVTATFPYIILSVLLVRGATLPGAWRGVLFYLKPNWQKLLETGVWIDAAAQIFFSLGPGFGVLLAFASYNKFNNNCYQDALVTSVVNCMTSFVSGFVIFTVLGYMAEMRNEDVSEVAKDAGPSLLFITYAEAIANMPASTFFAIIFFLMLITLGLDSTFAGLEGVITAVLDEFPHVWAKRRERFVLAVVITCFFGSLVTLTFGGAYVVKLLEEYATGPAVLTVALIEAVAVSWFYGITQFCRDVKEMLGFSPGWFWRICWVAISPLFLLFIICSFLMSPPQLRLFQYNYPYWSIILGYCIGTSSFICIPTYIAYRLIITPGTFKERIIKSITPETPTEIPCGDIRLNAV
T8 sequence (Q01959 whole entry): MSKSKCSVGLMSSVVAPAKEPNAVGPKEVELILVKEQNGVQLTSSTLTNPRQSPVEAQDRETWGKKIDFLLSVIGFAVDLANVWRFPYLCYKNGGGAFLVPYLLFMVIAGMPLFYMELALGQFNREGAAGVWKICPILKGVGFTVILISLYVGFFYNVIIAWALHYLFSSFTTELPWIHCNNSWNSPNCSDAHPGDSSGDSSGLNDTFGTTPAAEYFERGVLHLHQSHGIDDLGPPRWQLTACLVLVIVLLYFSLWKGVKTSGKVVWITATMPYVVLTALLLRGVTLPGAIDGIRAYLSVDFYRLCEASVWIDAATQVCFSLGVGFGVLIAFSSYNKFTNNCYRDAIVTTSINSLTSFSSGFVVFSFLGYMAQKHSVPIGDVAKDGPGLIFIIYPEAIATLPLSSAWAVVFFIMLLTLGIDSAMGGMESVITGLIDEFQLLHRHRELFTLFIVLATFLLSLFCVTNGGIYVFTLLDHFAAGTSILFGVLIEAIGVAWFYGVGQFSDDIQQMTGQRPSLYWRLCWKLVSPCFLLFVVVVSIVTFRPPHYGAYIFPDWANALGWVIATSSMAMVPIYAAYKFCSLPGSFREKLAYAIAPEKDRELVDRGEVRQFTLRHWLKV
T3 sequence (P41595 whole entry): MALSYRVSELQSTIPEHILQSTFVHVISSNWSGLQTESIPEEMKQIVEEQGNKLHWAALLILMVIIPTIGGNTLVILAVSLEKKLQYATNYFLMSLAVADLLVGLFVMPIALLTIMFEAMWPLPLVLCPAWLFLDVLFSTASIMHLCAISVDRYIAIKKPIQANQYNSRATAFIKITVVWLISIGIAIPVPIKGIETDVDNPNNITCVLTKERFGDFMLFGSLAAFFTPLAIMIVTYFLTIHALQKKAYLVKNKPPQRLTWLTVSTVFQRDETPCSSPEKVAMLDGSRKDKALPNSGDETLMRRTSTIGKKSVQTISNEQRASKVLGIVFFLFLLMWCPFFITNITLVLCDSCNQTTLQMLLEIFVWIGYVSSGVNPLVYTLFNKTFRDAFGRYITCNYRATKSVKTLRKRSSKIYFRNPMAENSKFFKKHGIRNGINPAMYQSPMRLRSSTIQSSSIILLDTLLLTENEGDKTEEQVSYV
T10 sequence (P23975 whole entry): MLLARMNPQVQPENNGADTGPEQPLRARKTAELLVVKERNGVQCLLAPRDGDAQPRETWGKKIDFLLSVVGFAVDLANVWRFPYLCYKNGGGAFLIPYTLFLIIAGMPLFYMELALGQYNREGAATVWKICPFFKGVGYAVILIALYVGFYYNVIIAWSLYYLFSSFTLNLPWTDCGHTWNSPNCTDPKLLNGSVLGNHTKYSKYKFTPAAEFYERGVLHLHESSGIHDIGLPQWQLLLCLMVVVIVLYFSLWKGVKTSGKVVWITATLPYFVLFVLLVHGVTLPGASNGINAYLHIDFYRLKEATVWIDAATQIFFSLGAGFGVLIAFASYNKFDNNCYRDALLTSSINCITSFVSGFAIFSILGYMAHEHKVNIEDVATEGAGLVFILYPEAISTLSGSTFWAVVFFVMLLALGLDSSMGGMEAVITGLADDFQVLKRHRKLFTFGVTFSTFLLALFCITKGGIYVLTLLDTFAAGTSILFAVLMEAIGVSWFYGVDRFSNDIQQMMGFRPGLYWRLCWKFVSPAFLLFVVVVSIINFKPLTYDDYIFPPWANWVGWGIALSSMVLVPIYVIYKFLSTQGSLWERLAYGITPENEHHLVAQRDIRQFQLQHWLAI
T2 sequence (P28223 whole entry): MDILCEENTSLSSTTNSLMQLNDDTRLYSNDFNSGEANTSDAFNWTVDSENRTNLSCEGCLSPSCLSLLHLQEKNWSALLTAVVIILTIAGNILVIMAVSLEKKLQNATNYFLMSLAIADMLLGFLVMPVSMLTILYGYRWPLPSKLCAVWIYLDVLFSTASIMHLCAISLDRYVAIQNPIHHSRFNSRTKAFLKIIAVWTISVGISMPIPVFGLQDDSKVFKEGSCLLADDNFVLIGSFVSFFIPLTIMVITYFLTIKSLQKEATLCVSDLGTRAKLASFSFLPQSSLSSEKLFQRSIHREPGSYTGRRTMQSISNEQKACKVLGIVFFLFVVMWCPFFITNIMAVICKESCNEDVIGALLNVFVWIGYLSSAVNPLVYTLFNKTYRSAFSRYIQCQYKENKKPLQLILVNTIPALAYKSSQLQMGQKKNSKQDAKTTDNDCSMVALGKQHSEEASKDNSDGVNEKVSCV
T4 sequence (P34969 whole entry): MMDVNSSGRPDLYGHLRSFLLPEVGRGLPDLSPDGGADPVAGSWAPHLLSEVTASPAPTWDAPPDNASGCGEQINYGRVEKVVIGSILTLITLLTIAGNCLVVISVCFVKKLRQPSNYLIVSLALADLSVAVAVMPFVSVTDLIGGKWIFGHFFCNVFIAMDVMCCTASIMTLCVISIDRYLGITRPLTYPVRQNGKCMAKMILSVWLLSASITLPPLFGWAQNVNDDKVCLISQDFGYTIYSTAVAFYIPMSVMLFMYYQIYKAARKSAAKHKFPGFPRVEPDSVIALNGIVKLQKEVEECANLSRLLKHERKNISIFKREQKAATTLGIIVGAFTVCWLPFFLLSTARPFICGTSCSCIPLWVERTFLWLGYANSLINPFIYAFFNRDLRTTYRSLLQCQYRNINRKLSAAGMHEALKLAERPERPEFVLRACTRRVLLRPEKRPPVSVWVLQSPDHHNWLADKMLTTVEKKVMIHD
T9 sequence (P48039 whole entry): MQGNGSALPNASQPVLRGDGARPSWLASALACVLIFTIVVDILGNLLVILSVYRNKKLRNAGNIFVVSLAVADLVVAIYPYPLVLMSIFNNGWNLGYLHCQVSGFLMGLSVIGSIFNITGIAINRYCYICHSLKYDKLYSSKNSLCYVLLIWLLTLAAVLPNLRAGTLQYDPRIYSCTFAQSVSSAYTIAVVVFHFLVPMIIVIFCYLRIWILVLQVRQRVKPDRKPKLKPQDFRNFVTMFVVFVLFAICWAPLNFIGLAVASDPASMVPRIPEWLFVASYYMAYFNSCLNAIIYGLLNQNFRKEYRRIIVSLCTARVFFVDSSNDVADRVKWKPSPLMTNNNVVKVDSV

Structure (SMILES)	Ki (5-HT1A receptor [1])	Ki (5-HT2A receptor [2]; [9])	HT1A, percent of control-specific binding (5-HT1A receptor [4])	HT2B, percent of control-specific binding (5-HT2B receptor)	HT7, percent of control-specific binding (5-HT7 receptor)	α-2A, percent of control-specific binding (alpha2A receptor)	D3, percent of control-specific binding (D3 receptor)	SERT, percent of control-specific binding [6]	DAT, percent of control-specific binding [7]	MT1, percent of control-specific binding (MT1 receptor)	inhibition at 10 µM (5-HT1A receptor [4])	inhibition at 10 µM (5-HT2A receptor [5]; [11])	inhibition at 10 µM (5-HT2B receptor)	inhibition at 10 µM (5-HT2C receptor)	inhibition at 10 µM (5-HT7 receptor)	inhibition at 10 µM (D3 receptor)	inhibition at 10 µM [6]	inhibition at 10 µM [7]	inhibition at 10 µM (MT1 receptor)	inhibition at 10 µM [8]	also measured
COc1cc(CCN)c(OC)cc1Br [2C-B, reference compound]	0.2 µM	0.414 µM	96%	99%	88%	88%	43%	42%	5%	86%	–	–	–	–	–	–	–	–	–	–	EC50 (5-HT1A receptor [3]; [10]): 5.95 µM; HT2A, percent of control-specific binding (5-HT2A receptor [5]; [11]): 98%; NET, percent of control-specific binding [8]: 13%
C/C(=C\c1ccc2c(c1)OCO2)CN1CCCC1 [B(II)]	824 µM	7 µM	–	–	–	75%	–	–	–	–	79%	53%	87%	45%	68%	55%	95%	69%	20%	43%	EC50 (5-HT1A receptor [3]): 40.1 µM
c1cc2c(cc1CCCN1CCCC1)OCO2 [C(III)]	2.33 µM	–	–	–	–	36%	–	–	–	–	72%	37%	47%	33%	15%	22%	19%	27%	3%	3%	–
Brc1cc2c(cc1CCCN1CCCC1)OCO2 [C(IV)]	0.596 µM	–	–	–	–	55%	–	–	–	–	92%	62%	73%	65%	40%	61%	31%	10%	8%	0%	–
CCN(CC)C/C=C/c1ccc2c(c1)OCO2 [D(I)]	–	21 µM	–	–	–	34%	–	–	–	–	49%	32%	58%	33%	18%	21%	70%	39%	10%	17%	EC50 (5-HT1A receptor [3]): > 1000 µM
O=C(CCc1ccc2c(c1)OCO2)N1CCCC1 [F(III)]	> 1000 µM	152 µM	–	–	–	5%	–	–	–	–	0%	0%	13%	5%	2%	0%	0%	0%	12%	0%	–
O=C(CCc1cc2c(cc1Br)OCO2)N1CCCC1 [F(IV)]	84.5 µM	–	–	–	–	4%	–	–	–	–	37%	0%	26%	8%	0%	12%	0%	0%	42%	0%	–
CNC(C)Cc1ccc2c(c1)OCO2 (centres unmarked) [MDMA, reference compound]	11 µM	–	68%	85%	58%	27%	18%	46%	28%	1%	–	–	–	–	–	–	–	–	–	–	Ki (5-HT2A receptor [2]): 39.9 µM; EC50 (5-HT1A receptor [3]; [10]): > 1000 µM; HT2A, percent of control-specific binding (5-HT2A receptor [5]; 10 µM): 74%; HT2C, percent of control-specific binding (5-HT2C receptor): 96%; NET, percent of control-specific binding [8]: 3%
CCOc1c(OC)cc(CCN)cc1OC [escaline]	12.4 µM	61 µM	44%	81%	16%	45%	0%	0%	0%	0%	–	–	–	–	–	–	–	–	–	–	HT2A, percent of control-specific binding (5-HT2A receptor [5]; [11]): 84%; HT2C, percent of control-specific binding (5-HT2C receptor): 95%; NET, percent of control-specific binding [8]: 6%
